Numbers after ± are expanded uncertainties.
Legend:
[1] = refractive index (Na D-line) (dimensionless); conditions: 100 kPa, Liquid, Standard Abbe refractometry
[2] = 100 kPa, Liquid; for speed of sound: Frequency=3 MHz, Single path-length method; for mass density: Vibrating tube method
[3] = xn = mol fraction of the nth substance listed; conditions: 100 kPa, Liquid, x1 = 1; for speed of sound: Frequency=3 MHz, Single path-length method; for mass density: Vibrating tube method
[4] = refractive index (Na D-line) (dimensionless); xn = mol fraction of the nth substance listed; conditions: 100 kPa, Liquid, Standard Abbe refractometry, x1 = 1

Row | Structure (SMILES) | refractive index ([1]; 293.15 K) | refractive index ([1]; 298.15 K) | refractive index ([1]; 303.15 K) | refractive index ([1]; 313.15 K) | refractive index ([1]; 323.15 K) | speed of sound ([2]; 293.15 K) | mass density ([2]; 293.15 K) | speed of sound ([2]; 298.15 K) | mass density ([2]; 298.15 K) | speed of sound ([2]; 303.15 K) | mass density ([2]; 303.15 K) | speed of sound ([2]; 313.15 K) | mass density ([2]; 313.15 K) | speed of sound ([2]; 323.15 K) | mass density ([2]; 323.15 K) | speed of sound ([3]; 293.15 K) | mass density ([3]; 293.15 K) | speed of sound ([3]; 303.15 K) | mass density ([3]; 303.15 K) | speed of sound ([3]; 313.15 K) | further results
1 | CN(C)CCOCCO [2-(2-dimethylaminoethoxy)ethanol] | 1.442 ± 0.006 | 1.44 ± 0.006 | 1.438 ± 0.006 | 1.435 ± 0.006 | 1.431 ± 0.006 | 1403.6 ± 2.4 m/s | 954 ± 4 kg/m3 | 1386.7 ± 2.4 m/s | 950 ± 4 kg/m3 | 1369.9 ± 2.4 m/s | 946 ± 4 kg/m3 | 1336.8 ± 2.4 m/s | 938 ± 4 kg/m3 | 1303.9 ± 2.4 m/s | 930 ± 4 kg/m3 |  |  |  |  |  | 
2 | NCCO [2-aminoethan-1-ol] | 1.455 ± 0.006 | 1.453 ± 0.006 | 1.451 ± 0.006 | 1.447 ± 0.006 | 1.443 ± 0.006 | 1734.2 ± 1.7 m/s | 1016 ± 4 kg/m3 | 1718.3 ± 1.7 m/s | 1012 ± 4 kg/m3 | 1702.2 ± 1.7 m/s | 1008 ± 4 kg/m3 | 1669.4 ± 1.7 m/s | 1000 ± 4 kg/m3 | 1637.3 ± 1.7 m/s | 992 ± 4 kg/m3 |  |  |  |  |  | 
3 | CN(C)CCCO [3-dimethylamino-1-propanol] | 1.437 ± 0.006 | 1.435 ± 0.006 | 1.433 ± 0.006 | 1.429 ± 0.006 | 1.425 ± 0.006 | 1395.8 ± 1.7 m/s | 885 ± 4 kg/m3 | 1377.3 ± 1.7 m/s | 881 ± 4 kg/m3 | 1358.8 ± 1.7 m/s | 877 ± 4 kg/m3 | 1322.1 ± 1.7 m/s | 869 ± 4 kg/m3 | 1285.7 ± 1.7 m/s | 860 ± 4 kg/m3 |  |  |  |  |  | 
4 | NCc1ccccc1 [benzylamine] | 1.544 ± 0.006 | 1.542 ± 0.006 | 1.539 ± 0.006 | 1.534 ± 0.006 | 1.529 ± 0.006 | 1579.7 ± 1.7 m/s | 983 ± 4 kg/m3 | 1560.1 ± 1.7 m/s | 978 ± 4 kg/m3 | 1540.2 ± 1.7 m/s | 974 ± 4 kg/m3 | 1500 ± 1.7 m/s | 965 ± 4 kg/m3 | 1461.1 ± 1.7 m/s | 957 ± 4 kg/m3 |  |  |  |  |  | 
5 | C[S+](C)[O-] [dimethyl sulfoxide] | 1.479 ± 0.006 | 1.477 ± 0.006 | 1.475 ± 0.006 | 1.47 ± 0.006 | 1.466 ± 0.006 | 1503.9 ± 1.5 m/s | 1100 ± 4 kg/m3 | 1486.8 ± 1.5 m/s | 1095 ± 4 kg/m3 | 1469.9 ± 1.5 m/s | 1090 ± 4 kg/m3 | 1436.3 ± 1.5 m/s | 1080 ± 4 kg/m3 | 1403 ± 1.5 m/s | 1070 ± 4 kg/m3 |  |  |  |  |  | 
6 | C[S+](C)[O-] [dimethyl sulfoxide] + CN(C)CCCO |  |  |  |  |  |  |  |  |  |  |  |  |  |  |  | 1503.9 ± 1.5 m/s | 1100 ± 4 kg/m3 | 1469.9 ± 1.5 m/s | 1090 ± 4 kg/m3 | 1436.3 ± 1.5 m/s | mass density ([3]; 313.15 K): 1080 ± 4 kg/m3; speed of sound ([3]; 323.15 K): 1403 ± 1.5 m/s; mass density ([3]; 323.15 K): 1070 ± 4 kg/m3; refractive index ([4]; 293.15 K): 1.479 ± 0.006; refractive index ([4]; 303.15 K): 1.475 ± 0.006; refractive index ([4]; 313.15 K): 1.47 ± 0.006; refractive index ([4]; 323.15 K): 1.466 ± 0.006

Further lines, with some results ahead:

Row | refractive index ([1]; 293.15 K) | refractive index ([1]; 298.15 K) | refractive index ([1]; 303.15 K) | refractive index ([1]; 313.15 K) | refractive index ([1]; 323.15 K) | speed of sound ([2]; 293.15 K) | mass density ([2]; 293.15 K) | speed of sound ([2]; 298.15 K) | mass density ([2]; 298.15 K) | speed of sound ([2]; 303.15 K) | mass density ([2]; 303.15 K) | speed of sound ([2]; 313.15 K) | mass density ([2]; 313.15 K) | speed of sound ([2]; 323.15 K) | mass density ([2]; 323.15 K) | speed of sound ([3]; 293.15 K) | mass density ([3]; 293.15 K) | speed of sound ([3]; 303.15 K) | mass density ([3]; 303.15 K) | speed of sound ([3]; 313.15 K) | Structure (SMILES) | further results
7 |  |  |  |  |  |  |  |  |  |  |  |  |  |  |  | 1503.9 ± 1.5 m/s | 1100 ± 4 kg/m3 | 1469.9 ± 1.5 m/s | 1090 ± 4 kg/m3 | 1436.3 ± 1.5 m/s | C[S+](C)[O-] [dimethyl sulfoxide] + CN(C)CCOCCO | mass density ([3]; 313.15 K): 1080 ± 4 kg/m3; speed of sound ([3]; 323.15 K): 1403 ± 1.5 m/s; mass density ([3]; 323.15 K): 1070 ± 4 kg/m3; refractive index ([4]; 293.15 K): 1.479 ± 0.006; refractive index ([4]; 303.15 K): 1.475 ± 0.006; refractive index ([4]; 313.15 K): 1.47 ± 0.006; refractive index ([4]; 323.15 K): 1.466 ± 0.006
8 |  |  |  |  |  |  |  |  |  |  |  |  |  |  |  | 1503.9 ± 1.5 m/s | 1100 ± 4 kg/m3 | 1469.9 ± 1.5 m/s | 1090 ± 4 kg/m3 | 1436.3 ± 1.5 m/s | C[S+](C)[O-] [dimethyl sulfoxide] + NCCO | mass density ([3]; 313.15 K): 1080 ± 4 kg/m3; speed of sound ([3]; 323.15 K): 1403 ± 1.5 m/s; mass density ([3]; 323.15 K): 1070 ± 4 kg/m3; refractive index ([4]; 293.15 K): 1.479 ± 0.006; refractive index ([4]; 303.15 K): 1.475 ± 0.006; refractive index ([4]; 313.15 K): 1.47 ± 0.006; refractive index ([4]; 323.15 K): 1.466 ± 0.006
9 |  |  |  |  |  |  |  |  |  |  |  |  |  |  |  | 1503.9 ± 1.5 m/s | 1100 ± 4 kg/m3 | 1469.9 ± 1.5 m/s | 1090 ± 4 kg/m3 | 1436.3 ± 1.5 m/s | C[S+](C)[O-] [dimethyl sulfoxide] + NCc1ccccc1 | mass density ([3]; 313.15 K): 1080 ± 4 kg/m3; speed of sound ([3]; 323.15 K): 1403 ± 1.5 m/s; mass density ([3]; 323.15 K): 1070 ± 4 kg/m3; refractive index ([4]; 293.15 K): 1.479 ± 0.006; refractive index ([4]; 303.15 K): 1.475 ± 0.006; refractive index ([4]; 313.15 K): 1.47 ± 0.006; refractive index ([4]; 323.15 K): 1.466 ± 0.006

From the NIST ThermoML archive (doi:10.1016/j.jct.2018.02.018)
